Assays:
Format in all cases: cell-based, human
MCF7TDX cells = experiment: 384-well interaction screening assay (alamarBlue) with NB1011, MCF7TDX; conditions: drug combined with NB1011, MCF7TDX, 384-well alamarBlue, 5-day
Description: Cell lines: Normal human colon epithelial cells (CCD18co) and skin fibroblasts (Det55 1) were purchased from ATCC (Rockville,Md.). MCF7TDX, human breast carcinoma cells resistant to 2 μM Tomudex were obtained from Dr. Patrick Johnston, Queens University, Belfast. […] The MCF7TDX and the H630R10 cell lines have been previously described in Drake, J. C. et al. (1996) and Copur, S. et al. (1995) respectively.
Culture Conditions: All cells were cultured under standard conditions of 37° C., 95% humidified air, 5% CO2 in RPMI 1640 culture medium containing 10% fetal calf serum (Life Technologies) and penicillin/streptomycin/fungizone. […] The medium was renewed or the cells were passaged about every three days to maintain optimal growth conditions. […]
Cytotoxicity Studies: 384-well interaction screening assay. […] Following a 5-day incubation, the redox indicator dye, alamarBlue (AccuMed International, Westlake, Ohio) was added to each well at a 10% v/v ratio, and fluorescence was monitored at 535 excitation, 595 emission. Cytotoxic effect levels and drug interactions were assessed by the combination index method (Chou, T. C. and Talalay, P. (1984) and Bible, K. C. et al. (1997)), described briefly below. […] Sigmoid curves were fit according to the Hill inhibitory Emax model, and IC50 calculated as the average of three or more separate determinations. […]

C/HT1080 cells = experiment: alamarBlue cytotoxicity, control-transfected HT1080; conditions: C/HT1080, TS Level 100%
Description: (§1) Cell lines and transfection. HT1080 cells were grown in PRM11640 medium supplemented with 10% fetal calf serum, and transfected with GFP-TS expression vector. 48 hours after, transfection cells were tripsinized and replated in culture medium containing 750 μg/ml G418. After selection with G418 for two weeks, surviving cells were sorted based upon fluorescence expression. One clone with higher fluorescence expression (named as TSH/HT1080) and one clone with lower fluorescence expression (named as TSL/HT1080) were selected and expanded into cells lines. The stable HT1080 cells transfected with pEGFP-C3 were used as control.
(§2) Construction of GFP-TS expression vector. […] The cDNA was cloned into HindIII and KpnI sites of mammalian expression vector pEGFP-C3 (Clontech Laboratories. Inc., Palo Alto, Calif.), in-frame with GFP sequence. The cDNA insert was confirmed by DNA sequencing.
(§3) Growth Inhibition Studies. Cells growing exponentially were transferred to 384-well flat bottom tissue culture plates. All cell types were plated at a density of 500 cells per well in 25 μL of complete medium (RPMI 1640+10% fetal bovine serum+antibiotics/antimycotics). […] After 4 hours incubation at 37° C., fluorescence was monitored at 535 nm excitation and 595 nm emission.
(§4) Concentration vs. relative fluorescence units (RFU) were plotted, and sigmoid curves were fit using the Hill equation.

TSL/HT1080 cells = experiment: alamarBlue cytotoxicity, HT1080 expressing low GFP-TS; conditions: TSL/HT1080, TS Level 409%
Description: as §1, §2, §3, §4

TSH/HT1080 cells = experiment: alamarBlue cytotoxicity, HT1080 expressing high GFP-TS; conditions: second line printed TSL/HT1080, TS Level 702%
Description: as §1, §2, §3, §4

[1] = system: CCD18co normal colon epithelial cells; experiment: Thymidine rescue, alamarBlue cytotoxicity
Source text: An additional approach was taken to understanding whether NB1011 might interfere with cell growth primarily by inactivating TS. This approach is based upon thymidine rescue of TS-blocked cells. […] For this reason, they survive only by scavenger mechanisms. One of the important scavenger mechanisms is utilization of extracellular thymidine. Thymidine incorporated by target cells can be converted to dTMP, usually by thymidine kinase, and thus continue DNA synthesis. Other pathways for use of exogenous thymidine have also been described If an important mechanism for NB1011 activity is via inhibition of endogenous TS, then the cytotoxicity should be relieved when thymidine is added to the cell culture media. For this experiment, a number of tumor cell lines were screened for their sensitivity to Tomudex and 5FdUrd, and ability to be rescued from these agents via thymidine supplementation. […] Experiments were carried out as described by (Patterson, et al. (1998)) with or without 10 μM thymidine, except that the alamarBlue assay was employed to determine cytotoxicity.

Row | SMILES | Combination Index ± s.e.m. (MCF7TDX cells) | IC50 (C/HT1080 cells) [nM] | IC50 (TSL/HT1080 cells) [nM] | IC50 (TSH/HT1080 cells) [nM] | IC50 ([1]; in the presence of 10 μM thymidine) [nM] | IC50 ([1]; without thymidine) [nM]
1 | N.N.[Cl][Pt][Cl] [Cisplatin] | 1.51 ± 0.35 |  |  |  |  | 
2 | O=c1[nH]c(=O)n([C@H]2C[C@H](O)[C@@H](CO)O2)cc1F [FUDR] |  | < 100 | 2200 | 3100 | > 5900 | < 10
3 | CCc1c2c(nc3ccc(OC(=O)N4CCC(N5CCCCC5)CC4)cc13)-c1cc3c(c(=O)n1C2)COC(=O)[C@]3(O)CC [Irinotecan] | 1.36 ± 0.38 |  |  |  |  | 

Source: patent US7462605B2, “Phosphoramidate compounds and methods of use” (Celmed Oncology (USA), Inc., priority 2002, dated 2008)
